According to patent publication US11883442B1, “Composition for treating irritable bowel syndrome” (KING FAISAL UNIVERSITY, priority 2023, dated 2024):

Test system: TNF-α
Assay: cytokine (TNF-α) levels in the colonic homogenate, TNBS-induced colitis model
Format: in vivo, C57B16j mice
Conditions: at a pH value of 5.2; FIG. 2B
Method: Colitis was induced in C57B16j mice by 2,4,6-trinitrobenzene sulfonic acid (TNBS). TNBS induction was made at 0 and 4 days. BA 10^8/mL BA, EF 10^9/mL EF, and calciferol at […] was administered as oral gavage on alternative days from day 0 to day 14.
A comparative evaluation of cytokine (TNF-α) levels in the colonic homogenate of different mice groups from the TNBS-induced colitis model was performed. TNF-α was quantified after 14 days of the start of the experiment. All data were collected from three individual experiments and pooled and expressed as mean ±SD (p<0.05). The effect of BA and EF loads on the pro-inflammatory marker (TNF-α) in TNBS-induced colitis mice is illustrated in FIGS. 1A-1B (values are expressed in pg/mL).
Disease index and bleeding indicated degree of recovery of the disease in the group treated with the composition. […] TNF-α was quantified after 14 days of the experiment. The values are expressed in pg/mL. All data were collected from three individual experiments and pooled and expressed as mean ±SD (p<0.05). *p<0.05 represents significance.

Which “most effective concentration of calciferol in the composition” value does the source give for `C=C1CC[C@H](O)C/C1=C/C=C1\CCC[C@]2(C)[C@@H]([C@H](C)/C=C/[C@H](C)C(C)C)CC[C@@H]12` [calciferol] here?
The value was 5 µM.
